Experiments:
[1] = test system: aurora kinase; conditions: aurora kinase isoform selectivity, Choudary et al. 2015; cited from earlier work
[2] = test system: Jeko-1 mantle cell lymphoma, SU-DHL-4 B cell lymphoma, and Jurkat T cell lymphoma cells; assay: Annexin V / propidium iodide flow cytometry apoptosis assay; assay type: cell-based; conditions: 72 hours; 3 μM Compound B, 0.01 or 0.03 μM alisertib, alone or combined; single-agent effect in some cell lines only
Experimental: To test for induction of apoptosis, Jeko-1 mantle cell lymphoma, SU-DHL-4 B cell lymphoma, and Jurkat T cell lymphoma cells were treated for 72 hours with either: DMSO, 3 μM of Compound B, 0.01 μM of alisertib, 0.03 μM of alisertib, or a combination of both Compound B and alisertib for 72 hrs. Cells were then harvested and stained with Annexin V, which recognizes an epitope on cells in the early stages of apoptosis. Cells were also stained with propidium iodide, which is excluded from cells with intact membranes, thus marking only dead cells. Flow cytometry analysis was then performed to measure the number of healthy and apoptotic cells under each treatment condition.

[3] = test system: Jurkat T cell lymphoma cells; assay: as above; assay type: cell-based; conditions: 72 hours, 3 μM Compound A or B, 0.01 μM alisertib, alone or combined
Experimental: To determine the extent that the combination therapies of Compound A/alisertib and Compound B/alisertib promote induction of apoptosis, Jurkat T cell lymphoma cells were treated with: DMSO, 3 μM of Compound B, 3 μM of Compound A, 0.01 μM of alisertib, a combination of Compound B/alisertib, or a combination of Compound A/alisertib, for 72 hours. Cells were then harvested and stained with Annexin V and propidium iodide as above. Flow cytometry analysis was then used to measure the number of healthy and apoptotic cells under each treatment condition.

[4] = test system: survivin, Aurora A, Aurora B, BubR1, CDC20 and MAD2L1 gene transcripts in H929 multiple myeloma cells; assay: Microarray gene expression profiling of H929 cells; assay type: cell-based; conditions: H929 cells, 2, 3, or 4 μM, 24 hours or 48 hours, Affymetrix microarray
Experimental: Microarray gene expression profiling was performed in H929 multiple myeloma (MM) cells to determine whether key mitotic regulators are down regulated by […]. H929 multiple myeloma cells were treated for 24 hours or 48 hours with 2, 3, or 4 μM of Compound A. Total RNA was extracted from the cells and subjected to gene expression profiling using an Affymetrix microarray system (Santa Clara, Calif.).

[5] = test system: survivin, Aurora A, Aurora B, BubR1, CDC20 and MAD2L1 gene transcripts in H929 MM, U266 MM and Jeko-1 MCL cell lines; assay: qPCR analysis of mitotic regulator downregulation across MM and MCL cell lines; assay type: cell-based; conditions: U266 MM and Jeko-1 MCL cells
Experimental: Independent qPCR validation of mitotic regulator downregulation by Compound A across MM and MCL cell lines was performed using H929 MM, U266 MM and Jeko-1 MCL cell lines. The cells were treated with Compound A. Total RNA was extracted and gene expression was measured by quantitative polymerase chain reaction (PCR) analysis.

| Structure (SMILES) | Selectivity [1] | percentage of cells undergoing apoptosis [3] | further results |
| --- | --- | --- | --- |
| O=C(Nc1c[nH]nc1-c1nc2cc(CN3CCOCC3)ccc2[nH]1)NC1CC1 [AT-9283] | Aurora A and Aurora B | – | – |
| COc1cc(Nc2ncc3c(n2)-c2ccc(Cl)cc2C(c2c(F)cccc2OC)=NC3)ccc1C(=O)O [Alisertib] | Aurora A | minimal induction of apoptosis | percentage of cells undergoing apoptosis [2]: some induction of apoptosis |
| CCN(CCCOc1ccc2c(Nc3cc(CC(=O)Nc4cccc(F)c4)[nH]n3)ncnc2c1)CCOP(=O)(O)O [Barasertib] | Aurora B | – | – |
| O=C(CCCCCCNC(=O)c1cnc(N(c2ccccc2)c2ccccc2)nc1)NO [Compound A, 2-(diphenylamino)-N-(7-(hydroxyamino)-7-oxoheptyl)pyrimidine-5-carboxamide] | – | minimal induction of apoptosis | expression of key mitotic regulatory genes (relative fold induction vs DMSO) [4]: reduced the expression; expression of key mitotic regulatory genes (relative to RPLP1, vs DMSO) [5]: reduced the expression |
| O=C(CCCCCCNC(=O)c1cnc(N(c2ccccc2)c2ccccc2Cl)nc1)NO [Compound B, 2-((2-chlorophenyl)(phenyl)amino)-N-(7-(hydroxyamino)-7-oxoheptyl)pyrimidine-5-carboxamide] | – | minimal induction of apoptosis | percentage of cells undergoing apoptosis [2]: some induction of apoptosis |
| CO[C@@H](C(=O)N1Cc2[nH]nc(NC(=O)c3ccc(N4CCN(C)CC4)cc3)c2C1)c1ccccc1 [Danusertib] | Pan | – | – |
| Cc1cc(Nc2cc(N3CCN(C)CC3)nc(/C=C/c3ccccc3)n2)n[nH]1 [ENMD- 2076] | Aurora A | – | – |
| O=C(O)[C@]1(Cc2cccc(Nc3nccs3)n2)CC[C@@H](Oc2cccc(Cl)c2F)CC1 [MK-5108] | Aurora A | – | – |
| Cc1cc(Nc2ncc(F)c(N[C@H]3[C@@H](C(N)=O)[C@@H]4C=C[C@H]3C4)n2)ccc1N1CCN(C)CC1 [MSC 1992371A] | Pan | – | – |
| Cc1cc(Nc2cc(N3CCN(C)CC3)nc(Sc3ccc(NC(=O)C4CC4)cc3)n2)[nH]n1 [Tozasertib] | Pan | – | – |

Reference: patent publication US11357776B2, “Pharmaceutical combinations comprising a histone deacetylase inhibitor and an aurora kinase inhibitor and methods of use thereof” (ACETYLON PHARMACEUTICALS, INC., priority 2016, dated 2022)
